The values below are quoted from earlier work in patent US20090220611A1, “Microparticles With Modified Release of At Least One Active Principle and Oral Pharmaceutical Form Comprising Same” (priority 2005, published 2009).

Molecules are shown by their SMILES.

For the data set the following is noted: qualitative statement.

Regarding `Nc1nc2c(ncn2COCCO)c(=O)[nH]1` [aciclovir], the water solubility result is on record as “sparingly water-soluble”.
